Measured values: publication PMC10526264, “VprBP/DCAF1 Triggers Melanomagenic Gene Silencing through Histone H2A Phosphorylation” (Biomedicines, 2023)
pIC50: −log10 of the molar value.

Target: VprBP/DCAF1 (Vpr binding protein) (Homo sapiens, UniProt Q9Y4B6)
Test: Western blot of H2AT120p (VprBP substrate mark) in G361 and MeWo melanoma cells treated […] h with […] B32B3
Format: cell-based

Sequence of VprBP/DCAF1 (Vpr binding protein) (Q9Y4B6 whole entry): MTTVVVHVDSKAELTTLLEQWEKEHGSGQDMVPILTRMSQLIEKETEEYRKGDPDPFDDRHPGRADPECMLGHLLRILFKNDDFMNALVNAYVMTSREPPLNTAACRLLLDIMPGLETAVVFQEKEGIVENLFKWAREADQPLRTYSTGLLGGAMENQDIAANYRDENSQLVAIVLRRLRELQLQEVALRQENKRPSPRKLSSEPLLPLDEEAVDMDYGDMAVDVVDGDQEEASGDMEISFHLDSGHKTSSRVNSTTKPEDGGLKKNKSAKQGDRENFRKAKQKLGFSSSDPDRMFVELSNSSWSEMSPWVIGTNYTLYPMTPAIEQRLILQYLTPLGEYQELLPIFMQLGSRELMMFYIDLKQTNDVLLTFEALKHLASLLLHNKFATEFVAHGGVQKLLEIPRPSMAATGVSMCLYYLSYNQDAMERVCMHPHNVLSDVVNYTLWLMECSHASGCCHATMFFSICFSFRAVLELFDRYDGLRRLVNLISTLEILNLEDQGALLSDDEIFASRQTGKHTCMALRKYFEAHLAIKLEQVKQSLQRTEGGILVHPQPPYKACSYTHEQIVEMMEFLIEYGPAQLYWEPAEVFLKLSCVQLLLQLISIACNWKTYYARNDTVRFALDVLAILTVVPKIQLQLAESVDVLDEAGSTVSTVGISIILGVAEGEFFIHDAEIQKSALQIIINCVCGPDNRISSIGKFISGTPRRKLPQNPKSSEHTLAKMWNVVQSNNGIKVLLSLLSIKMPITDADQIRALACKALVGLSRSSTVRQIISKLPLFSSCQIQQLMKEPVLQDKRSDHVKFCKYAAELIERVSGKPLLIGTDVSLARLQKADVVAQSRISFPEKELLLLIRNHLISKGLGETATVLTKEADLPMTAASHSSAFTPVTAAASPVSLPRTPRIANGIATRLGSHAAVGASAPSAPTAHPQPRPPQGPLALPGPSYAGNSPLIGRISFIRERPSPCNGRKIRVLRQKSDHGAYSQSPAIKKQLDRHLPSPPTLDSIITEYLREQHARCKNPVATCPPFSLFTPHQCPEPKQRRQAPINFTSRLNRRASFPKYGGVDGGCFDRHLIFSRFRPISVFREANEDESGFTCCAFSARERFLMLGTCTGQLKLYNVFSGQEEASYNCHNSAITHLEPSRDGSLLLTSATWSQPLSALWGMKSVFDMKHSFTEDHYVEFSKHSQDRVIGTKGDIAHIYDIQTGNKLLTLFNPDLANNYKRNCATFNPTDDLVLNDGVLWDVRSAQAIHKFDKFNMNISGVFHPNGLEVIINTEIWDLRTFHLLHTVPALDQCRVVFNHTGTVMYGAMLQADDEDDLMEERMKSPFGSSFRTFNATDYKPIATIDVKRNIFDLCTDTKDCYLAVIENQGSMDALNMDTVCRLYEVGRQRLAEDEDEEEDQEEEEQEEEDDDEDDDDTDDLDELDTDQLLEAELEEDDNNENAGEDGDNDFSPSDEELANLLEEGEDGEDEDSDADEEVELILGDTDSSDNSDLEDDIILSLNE

C(=N\Nc1ncnc2sc3c(c12)CCCC3)/c1c[nH]c2ccccc12 [B32B3]
pIC50: 7.00
